Assays:
[1] = tested on: Tyrosine-protein kinase ABL1 (Homo sapiens), P00519 [H396P]; experiment: Inhibition of T7 bacteriophage fused human nonphosphorylated ABL1 H396P mutant at 10 uM by KINOMEscan analysis relative to control
[2] = molecular target: Atypical kinase COQ8B, mitochondrial (Homo sapiens) (UniProt Q96D53); experiment: Inhibition of T7 bacteriophage fused human ADCK4 at 10 uM by KINOMEscan analysis relative to control
[3] = molecular target: RAC-alpha serine/threonine-protein kinase (Homo sapiens) (UniProt P31749); experiment: Inhibition of T7 bacteriophage fused human AKT1 at 10 uM by KINOMEscan analysis relative to control
[4] = molecular target: Calcium/calmodulin-dependent protein kinase type II subunit delta (Homo sapiens) (UniProt Q13557); experiment: Inhibition of T7 bacteriophage fused human CAMK2D at 10 uM by KINOMEscan analysis relative to control
[5] = molecular target: Myotonin-protein kinase (Homo sapiens) (UniProt Q09013); experiment: Inhibition of T7 bacteriophage fused human DMPK at 10 uM by KINOMEscan analysis relative to control
[6] = molecular target: Eukaryotic translation initiation factor 2-alpha kinase 1 (Homo sapiens) (UniProt Q9BQI3); experiment: Inhibition of T7 bacteriophage fused human EIF2AK1 at 10 uM by KINOMEscan analysis relative to control
[7] = molecular target: Ephrin type-A receptor 3 (Homo sapiens) (UniProt P29320); experiment: Inhibition of T7 bacteriophage fused human EPHA3 at 10 uM by KINOMEscan analysis relative to control
[8] = molecular target: Receptor tyrosine-protein kinase erbB-3 (Homo sapiens) (UniProt P21860); experiment: Inhibition of T7 bacteriophage fused human ERBB3 at 10 uM by KINOMEscan analysis relative to control
[9] = tested on: Receptor-type tyrosine-protein kinase FLT3 (Homo sapiens), P36888 [K663Q]; experiment: Inhibition of T7 bacteriophage fused human FLT3 K663Q mutant at 10 uM by KINOMEscan analysis relative to control
[10] = tested on: eIF-2-alpha kinase GCN2 (Homo sapiens), Q9P2K8 [S808G]; experiment: Inhibition of T7 bacteriophage fused human GCN2 S808G mutant Kinase domain-2 at 10 uM by KINOMEscan analysis relative to control
[11] = molecular target: Homeodomain-interacting protein kinase 2 (Homo sapiens) (UniProt Q9H2X6); experiment: Inhibition of T7 bacteriophage fused human HIPK2 at 10 uM by KINOMEscan analysis relative to control
[12] = molecular target: Hormonally up-regulated neu tumor-associated kinase (Homo sapiens) (UniProt P57058); experiment: Inhibition of T7 bacteriophage fused human HUNK at 10 uM by KINOMEscan analysis relative to control
[13] = molecular target: Inhibitor of nuclear factor kappa-B kinase subunit alpha (Homo sapiens) (UniProt O15111); experiment: Inhibition of T7 bacteriophage fused human IKK-alpha at 10 uM by KINOMEscan analysis relative to control
Chain of Inhibitor of nuclear factor kappa-B kinase subunit alpha (Homo sapiens) (O15111 whole entry, the tested form may be a part): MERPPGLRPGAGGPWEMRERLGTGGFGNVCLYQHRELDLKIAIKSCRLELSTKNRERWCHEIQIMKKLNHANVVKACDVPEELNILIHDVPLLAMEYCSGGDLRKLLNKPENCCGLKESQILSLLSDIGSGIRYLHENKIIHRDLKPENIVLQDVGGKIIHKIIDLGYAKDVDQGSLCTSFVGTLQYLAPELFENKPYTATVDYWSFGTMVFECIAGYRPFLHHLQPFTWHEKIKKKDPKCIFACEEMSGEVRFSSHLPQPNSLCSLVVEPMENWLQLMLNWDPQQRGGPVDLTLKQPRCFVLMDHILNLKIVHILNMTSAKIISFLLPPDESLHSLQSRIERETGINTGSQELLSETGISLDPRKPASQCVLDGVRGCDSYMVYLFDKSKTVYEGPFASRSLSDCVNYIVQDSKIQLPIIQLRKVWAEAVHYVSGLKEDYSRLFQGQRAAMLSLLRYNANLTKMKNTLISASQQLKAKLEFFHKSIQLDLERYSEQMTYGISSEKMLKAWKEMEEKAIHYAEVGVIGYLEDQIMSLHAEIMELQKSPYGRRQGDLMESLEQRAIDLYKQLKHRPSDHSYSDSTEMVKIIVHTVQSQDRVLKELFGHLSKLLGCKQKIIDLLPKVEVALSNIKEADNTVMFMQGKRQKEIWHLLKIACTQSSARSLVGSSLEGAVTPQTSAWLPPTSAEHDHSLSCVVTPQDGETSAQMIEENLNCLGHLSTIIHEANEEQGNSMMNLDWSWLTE

[14] = molecular target: Mitogen-activated protein kinase kinase kinase kinase 5 (Homo sapiens) (UniProt Q9Y4K4); experiment: Inhibition of T7 bacteriophage fused human MAP4K5 at 10 uM by KINOMEscan analysis relative to control
[15] = molecular target: Serine/threonine-protein kinase Nek5 (Homo sapiens) (UniProt Q6P3R8); experiment: Inhibition of T7 bacteriophage fused human NEK5 at 10 uM by KINOMEscan analysis relative to control
[16] = molecular target: Serine/threonine-protein kinase Nek6 (Homo sapiens) (UniProt Q9HC98); experiment: Inhibition of T7 bacteriophage fused human NEK6 at 10 uM by KINOMEscan analysis relative to control
[17] = tested on: Phosphatidylinositol 4,5-bisphosphate 3-kinase catalytic subunit alpha isoform (Homo sapiens), P42336 [E545A]; experiment: Inhibition of T7 bacteriophage fused human PIK3CA E545A mutant at 10 uM by KINOMEscan analysis relative to control
Chain of Phosphatidylinositol 4,5-bisphosphate 3-kinase catalytic subunit alpha isoform (Homo sapiens), P42336 [E545A] (P42336 whole entry E545A, the tested form may be a part, canonical isoform): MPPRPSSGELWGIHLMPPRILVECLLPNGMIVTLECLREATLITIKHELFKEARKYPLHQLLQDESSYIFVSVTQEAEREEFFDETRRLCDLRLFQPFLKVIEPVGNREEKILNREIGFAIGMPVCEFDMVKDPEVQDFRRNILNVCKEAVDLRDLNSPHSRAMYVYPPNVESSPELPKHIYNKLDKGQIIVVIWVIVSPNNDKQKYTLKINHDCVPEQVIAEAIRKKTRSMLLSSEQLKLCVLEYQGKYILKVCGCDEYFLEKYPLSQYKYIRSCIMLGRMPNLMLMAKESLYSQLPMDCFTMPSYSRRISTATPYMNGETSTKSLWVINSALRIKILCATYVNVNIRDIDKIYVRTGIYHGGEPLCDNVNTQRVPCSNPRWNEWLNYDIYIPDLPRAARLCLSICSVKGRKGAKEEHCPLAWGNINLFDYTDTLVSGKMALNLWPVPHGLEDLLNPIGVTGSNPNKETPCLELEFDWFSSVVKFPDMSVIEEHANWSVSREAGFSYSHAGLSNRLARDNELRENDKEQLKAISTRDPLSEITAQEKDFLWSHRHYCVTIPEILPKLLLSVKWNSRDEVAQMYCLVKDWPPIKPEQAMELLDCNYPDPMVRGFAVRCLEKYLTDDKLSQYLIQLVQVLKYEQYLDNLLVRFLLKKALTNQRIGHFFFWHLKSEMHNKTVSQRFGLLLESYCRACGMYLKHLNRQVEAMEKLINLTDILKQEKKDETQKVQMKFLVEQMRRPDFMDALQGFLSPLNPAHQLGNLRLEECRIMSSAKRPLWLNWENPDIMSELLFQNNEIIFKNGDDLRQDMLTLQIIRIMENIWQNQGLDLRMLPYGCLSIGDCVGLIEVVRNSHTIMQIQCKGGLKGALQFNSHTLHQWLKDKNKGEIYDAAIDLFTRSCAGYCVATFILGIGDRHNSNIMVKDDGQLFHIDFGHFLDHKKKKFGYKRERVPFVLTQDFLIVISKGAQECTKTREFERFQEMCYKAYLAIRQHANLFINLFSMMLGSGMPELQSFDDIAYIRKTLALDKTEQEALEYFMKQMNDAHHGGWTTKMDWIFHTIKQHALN

[18] = molecular target: cAMP-dependent protein kinase catalytic subunit PRKX (Homo sapiens) (UniProt P51817); experiment: Inhibition of T7 bacteriophage fused human PRKX at 10 uM by KINOMEscan analysis relative to control
Chain of cAMP-dependent protein kinase catalytic subunit PRKX (Homo sapiens) (P51817 whole entry, the tested form may be a part): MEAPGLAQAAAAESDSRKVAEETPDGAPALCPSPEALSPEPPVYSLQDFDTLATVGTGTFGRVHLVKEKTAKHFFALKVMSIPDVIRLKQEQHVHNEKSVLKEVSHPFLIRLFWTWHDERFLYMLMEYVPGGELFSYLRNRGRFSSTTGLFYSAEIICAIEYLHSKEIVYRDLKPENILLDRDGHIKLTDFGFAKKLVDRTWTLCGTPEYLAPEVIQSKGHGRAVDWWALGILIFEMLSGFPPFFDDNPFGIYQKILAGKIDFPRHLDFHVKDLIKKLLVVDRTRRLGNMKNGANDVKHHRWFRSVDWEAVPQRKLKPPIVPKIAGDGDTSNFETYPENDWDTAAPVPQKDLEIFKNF

[19] = molecular target: Rho-associated protein kinase 2 (Homo sapiens) (UniProt O75116); experiment: Inhibition of T7 bacteriophage fused human ROCK2 at 10 uM by KINOMEscan analysis relative to control
[20] = molecular target: Proto-oncogene tyrosine-protein kinase ROS (Homo sapiens) (UniProt P08922); experiment: Inhibition of T7 bacteriophage fused human ROS1 at 10 uM by KINOMEscan analysis relative to control
[21] = molecular target: Ribosomal protein S6 kinase alpha-4 (Homo sapiens) (UniProt O75676); experiment: Inhibition of T7 bacteriophage fused human C-terminal RPS6KA4 Kinase domain-2 at 10 uM by KINOMEscan analysis relative to control
Chain of Ribosomal protein S6 kinase alpha-4 (Homo sapiens) (O75676 whole entry, looked up, the tested form may be a part): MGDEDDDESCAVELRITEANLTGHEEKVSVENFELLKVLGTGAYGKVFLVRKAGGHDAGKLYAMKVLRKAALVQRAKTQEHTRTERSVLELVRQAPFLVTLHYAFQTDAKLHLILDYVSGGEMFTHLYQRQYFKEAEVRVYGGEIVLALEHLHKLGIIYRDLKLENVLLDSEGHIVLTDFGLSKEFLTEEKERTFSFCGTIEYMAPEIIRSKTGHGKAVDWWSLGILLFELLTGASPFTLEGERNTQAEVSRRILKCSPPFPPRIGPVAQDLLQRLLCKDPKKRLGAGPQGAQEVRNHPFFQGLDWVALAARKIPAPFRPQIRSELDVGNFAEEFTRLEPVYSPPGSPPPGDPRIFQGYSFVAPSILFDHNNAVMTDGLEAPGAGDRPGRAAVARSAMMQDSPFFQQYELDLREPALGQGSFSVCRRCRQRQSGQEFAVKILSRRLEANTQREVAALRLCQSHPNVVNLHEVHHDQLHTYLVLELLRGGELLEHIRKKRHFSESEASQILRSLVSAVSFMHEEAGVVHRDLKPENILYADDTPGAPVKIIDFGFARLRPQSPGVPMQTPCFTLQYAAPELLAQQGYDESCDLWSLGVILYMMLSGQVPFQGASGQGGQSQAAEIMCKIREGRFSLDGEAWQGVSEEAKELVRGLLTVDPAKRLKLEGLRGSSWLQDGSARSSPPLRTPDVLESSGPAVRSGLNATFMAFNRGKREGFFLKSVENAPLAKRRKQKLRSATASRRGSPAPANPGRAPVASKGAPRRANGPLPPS

[22] = molecular target: Serine/threonine-protein kinase 16 (Homo sapiens) (UniProt O75716); experiment: Inhibition of T7 bacteriophage fused human STK16 at 10 uM by KINOMEscan analysis relative to control
Chain of Serine/threonine-protein kinase 16 (Homo sapiens) (O75716 whole entry, the tested form may be a part): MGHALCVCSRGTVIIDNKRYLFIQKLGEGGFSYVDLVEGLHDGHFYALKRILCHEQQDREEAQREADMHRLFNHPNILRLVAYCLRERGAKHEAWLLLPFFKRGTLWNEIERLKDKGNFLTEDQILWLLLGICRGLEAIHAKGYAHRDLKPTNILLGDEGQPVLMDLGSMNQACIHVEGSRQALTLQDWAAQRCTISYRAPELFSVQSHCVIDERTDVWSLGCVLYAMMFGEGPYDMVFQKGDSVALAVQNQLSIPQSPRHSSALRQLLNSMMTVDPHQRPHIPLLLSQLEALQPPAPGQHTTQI

[23] = molecular target: Serine/threonine-protein kinase ULK2 (Homo sapiens) (UniProt Q8IYT8); experiment: Inhibition of T7 bacteriophage fused human ULK2 at 10 uM by KINOMEscan analysis relative to control
Chain of Serine/threonine-protein kinase ULK2 (Homo sapiens) (Q8IYT8 whole entry, the tested form may be a part): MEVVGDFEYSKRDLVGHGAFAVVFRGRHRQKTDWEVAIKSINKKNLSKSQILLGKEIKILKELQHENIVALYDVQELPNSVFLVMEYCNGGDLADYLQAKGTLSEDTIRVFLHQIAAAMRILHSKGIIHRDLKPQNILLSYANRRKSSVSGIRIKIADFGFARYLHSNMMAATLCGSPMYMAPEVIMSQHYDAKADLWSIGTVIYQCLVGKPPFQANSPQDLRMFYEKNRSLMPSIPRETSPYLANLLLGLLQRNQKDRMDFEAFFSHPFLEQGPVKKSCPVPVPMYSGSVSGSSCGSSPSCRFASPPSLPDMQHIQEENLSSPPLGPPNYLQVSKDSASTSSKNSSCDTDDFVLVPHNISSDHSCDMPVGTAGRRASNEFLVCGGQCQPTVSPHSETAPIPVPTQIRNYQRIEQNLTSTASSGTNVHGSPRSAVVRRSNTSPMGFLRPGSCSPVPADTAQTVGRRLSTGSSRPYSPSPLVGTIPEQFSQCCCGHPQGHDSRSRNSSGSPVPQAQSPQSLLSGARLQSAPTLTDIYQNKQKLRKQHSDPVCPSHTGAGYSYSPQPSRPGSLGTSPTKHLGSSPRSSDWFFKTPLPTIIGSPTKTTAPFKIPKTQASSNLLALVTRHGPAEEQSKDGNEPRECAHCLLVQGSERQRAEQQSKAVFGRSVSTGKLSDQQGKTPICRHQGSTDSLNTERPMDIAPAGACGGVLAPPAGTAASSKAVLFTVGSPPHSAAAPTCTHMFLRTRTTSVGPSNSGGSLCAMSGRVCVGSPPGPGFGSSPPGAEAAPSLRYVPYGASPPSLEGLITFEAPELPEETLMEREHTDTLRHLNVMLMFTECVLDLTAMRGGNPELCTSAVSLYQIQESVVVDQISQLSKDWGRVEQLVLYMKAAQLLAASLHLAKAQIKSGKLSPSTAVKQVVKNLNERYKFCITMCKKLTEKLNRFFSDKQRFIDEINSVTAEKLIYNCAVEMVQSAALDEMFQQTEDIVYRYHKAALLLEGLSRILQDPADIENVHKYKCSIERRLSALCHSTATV

[24] = molecular target: Focal adhesion kinase 1 (Homo sapiens) (UniProt Q05397); experiment: Inhibition of T7 bacteriophage fused human FAK at 10 uM by KINOMEscan analysis relative to control; values are per cent of control
[25] = molecular target: Tyrosine-protein kinase Fer (Homo sapiens) (UniProt P16591); experiment: Inhibition of T7 bacteriophage fused human FER at 10 uM by KINOMEscan analysis relative to control; values are per cent of control
[26] = molecular target: Tyrosine-protein kinase FRK (Homo sapiens) (UniProt P42685); experiment: Inhibition of T7 bacteriophage fused human FRK at 10 uM by KINOMEscan analysis relative to control; values are per cent of control
Chain of Tyrosine-protein kinase FRK (Homo sapiens) (P42685 whole entry, the tested form may be a part): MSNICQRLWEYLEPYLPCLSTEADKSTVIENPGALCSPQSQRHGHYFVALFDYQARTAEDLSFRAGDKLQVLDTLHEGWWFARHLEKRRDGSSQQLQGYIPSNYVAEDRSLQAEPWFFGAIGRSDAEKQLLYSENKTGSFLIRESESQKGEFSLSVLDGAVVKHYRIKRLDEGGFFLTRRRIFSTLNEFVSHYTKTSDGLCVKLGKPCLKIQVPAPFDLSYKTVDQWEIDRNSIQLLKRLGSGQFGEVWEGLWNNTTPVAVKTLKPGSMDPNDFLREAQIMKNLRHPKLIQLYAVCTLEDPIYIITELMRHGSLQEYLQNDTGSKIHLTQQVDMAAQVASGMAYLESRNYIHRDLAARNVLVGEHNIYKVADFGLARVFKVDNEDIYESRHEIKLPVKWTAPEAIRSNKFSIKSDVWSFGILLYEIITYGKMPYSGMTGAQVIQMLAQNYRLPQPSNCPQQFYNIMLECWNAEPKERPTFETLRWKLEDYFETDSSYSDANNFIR

[27] = molecular target: Serine/threonine-protein kinase STK11 (Homo sapiens) (UniProt Q15831); experiment: Inhibition of T7 bacteriophage fused human LKB1 at 10 uM by KINOMEscan analysis relative to control; values are per cent of control
[28] = molecular target: Ephrin type-A receptor 7 (Homo sapiens) (UniProt Q15375); experiment: Inhibition of T7 bacteriophage fused human EPHA7 at 10 uM by KINOMEscan analysis relative to control; values are per cent of control
[29] = molecular target: Casein kinase I isoform delta (Homo sapiens) (UniProt P48730); experiment: Inhibition of T7 bacteriophage fused human CSNK1D at 10 uM by KINOMEscan analysis relative to control; values are per cent of control
[30] = molecular target: Serine/threonine-protein kinase DCLK3 (Homo sapiens) (UniProt Q9C098); experiment: Inhibition of T7 bacteriophage fused human DCAMKL3 at 10 uM by KINOMEscan analysis relative to control; values are per cent of control

COc1cc(N2CCC(N3CCN(C)CC3)CC2)ccc1Nc1ncc2c(n1)N(C)c1ccccc1C(=O)N2C
inhibition [1]: 100% | inhibition [2]: 94% | inhibition [3]: 79% | inhibition [4]: 28% | inhibition [5]: 100% | inhibition [6]: 100% | inhibition [7]: 100% | inhibition [8]: 100% | inhibition [9]: 97% | inhibition [10]: 95% | inhibition [11]: 88% | inhibition [12]: 100% | inhibition [13]: 100% | inhibition [14]: 100% | inhibition [15]: 100% | inhibition [16]: 76% | inhibition [17]: 98% | inhibition [18]: 99% | inhibition [19]: 87% | inhibition [20]: 12% | inhibition [21]: 46% | inhibition [22]: 62% | inhibition [23]: 67% | residual activity [24]: 34% | residual activity [25]: 51% | residual activity [26]: 34% | residual activity [27]: 96% | residual activity [28]: 97% | residual activity [29]: 81% | residual activity [30]: 90%
